In US8129184B2, “Cancer stem cell antigen vaccines and methods” (Cedars-Sinai Medical Center, priority 2006, dated 2012):
“Also recorded” adds a separate entry of the source.

Key:
[1] = test system: CD133 positive cells isolated from No. 66; test: WST-1 Cell Proliferation Assay, drug sensitivity of CD133 positive vs CD133 negative cells, No. 66; format: cell-based, human; conditions: No. 66, 48 hours, 10% FBS/F-12/DMEM
Description: FIGS. 10A-10D are line graphs depicting drug sensitivity of CD133 positive cancer stem cells derived from patient No. 66. Tumor cells of No. 66 were cultured in FBS/F-12/DMEM medium for 4 passages. Both CD133 positive and negative tumor cells were collected by FACS sorting. 1×10^4 cells/well were plated in 96-well plate and treated with the indicated concentrations of VP-16, Taxol, temozolomide, and carboplatin for 48 hours in FBS/F-12/DMEM medium. * indicates p<0.05 compared to autologous CD133 negative cells. Data are representative of two independent experiments. (10A) VP16; (10B) Taxol; (10C) temozolomide; (10D) carboplatin.
(§1) To determine whether CD133 positive cancer stem cells were resistant to chemotherapeutic agents, the WST-1 Cell Proliferation Assay was used to examine the drug sensitivity of CD133 positive cells and CD133 negative cells (both collected by FACS sorting from the three glioblastoma patients' primary cultured tumor cells as described above). CD133 positive and negative cells were exposed to conventional chemotherapeutic agents, temozolomide, carboplatin, VP-16 or taxol at various concentrations, for up to 48 hours in 10% FBS/F-12/DMEM culture medium. Temozolomide was supplied by the Schering-Plough Research Institute (Kenilworth, N.J.) and was dissolved in DMSO (Sigma Chemical Co., St Louis, Mo.) at 100 mM stock solution. Carboplatin, etoposide (VP-16) and paclitaxel (Taxol) were obtained from Sigma-Aldrich (St. Louis, Mo.).

[2] = test system: CD133 positive cells isolated from No. 377; test: WST-1 Cell Proliferation Assay, drug sensitivity of CD133 positive vs CD133 negative cells, No. 377; format: cell-based, human; conditions: 48 hours
Description: (§2) FIGS. 11A-11C are a set of line graphs depicting drug sensitivity of CD133 positive cancer stem cells derived from patient Nos. 377 and 1049. Tumor cells of patient No. 377 and No. 1049 were cultured in FBS/F-12/DMEM medium for 3 passages. Both CD133 positive and negative tumor cells were collected by FACS sorting. 1×10^4 cells/well were plated in 96-well plate and treated with the indicated concentrations of carboplatin (11A and 11C) or VP-16 (11B) for 48 hours in FBS/F-12/DMAEM medium. * indicates p<0.05 compared to autologous CD133 negative cells. Data are representative of two independent experiments.
as §1, with “Carboplatin, etoposide (VP-16) and paclitaxel (Taxol) were obtained from Sigma-Aldrich (St. Louis, Mo.).” left out

[3] = test system: 9L sphere and monolayer cells; test: WST-1 viability of 9L neurospheres and monolayer cells exposed to chemotherapeutic agents; format: cell-based, rat; conditions: 125-1,000 μM, 2 days
Description: To compare the differential proliferation rates and resistance to chemotherapeutic agents, 2,000 healthy 9L sphere and monolayer cells were exposed to either Dulbecco's modified Eagle's medium/F-12 medium containing 10% fetal bovine serum (FBS), or […] stock solution of Temozolamide or Carboplatin dissolved in PBS at concentrations of 1,000 μM, 500 μM, 250 μM, and 125 μM for 2 days. The viability of the cells was scored by measurement of the absorption of formazan dye (the amount of formazan dye formed directly correlates to the number of metabolically active cells) using the cellular proliferation assay WST-1 (Roche Molecular Biochemicals, Mannheim, Germany). Formazan was measured with the use of a microplate reader (Tecan) and spectrophotometer set at a wavelength of 440 nm and a reference wavelength of 890 nm. Cellular viability was determined by exposing cells to WST-1 for 4 hours, and calculating the percentage of viable cells. Proliferation was also assessed by using manual cell counting after 7 days in culture, with an initial cellular concentration of 100,000 cells/mL in a […] flask.

[4] = test system: CD133 positive cells isolated from No. 1049; test: WST-1 Cell Proliferation Assay, drug sensitivity of CD133 positive vs CD133 negative cells, No. 1049; format: cell-based, human; conditions: No. 1049, at 200 μM, 48 hours
Description: as §2
as §1, with “Carboplatin, etoposide (VP-16) and paclitaxel (Taxol) were obtained from Sigma-Aldrich (St. Louis, Mo.).” left out

## CC(=O)O[C@H]1C(=O)[C@@]2(C)[C@H]([C@H](OC(=O)c3ccccc3)[C@]3(O)C[C@H](OC(=O)[C@H](O)[C@@H](NC(=O)c4ccccc4)c4ccccc4)C(C)=C1C3(C)C)[C@]1(OC(C)=O)CO[C@@H]1C[C@@H]2O [Taxol, paclitaxel]
[1]
  drug resistance of CD133 positive cells compared to autologous CD133 negative cells: dramatic drug resistance

## COc1cc([C@@H]2c3cc4c(cc3[C@@H](O[C@@H]3O[C@@H]5CO[C@@H](C)O[C@H]5[C@H](O)[C@H]3O)[C@H]3COC(=O)[C@H]23)OCO4)cc(OC)c1O [VP-16, etoposide]
[1]
  drug resistance of CD133 positive cells compared to autologous CD133 negative cells: dramatic drug resistance
[2]; No. 377, at 200 μM
  resistance of CD133 positive cells compared to autologous CD133 negative cells: significant resistance

## N.N.O=C([O-])C1(C(=O)[O-])CCC1.[Pt+2] [carboplatin]
[3]
  resistance of neurospheres to the agent compared to monolayer cells: significantly (P<0.05) greater resistance; also recorded: significantly more resistant
[1]
  drug resistance of CD133 positive cells compared to autologous CD133 negative cells: dramatic drug resistance
[2]; No. 377, all concentrations tested
  resistance of CD133 positive cells compared to autologous CD133 negative cells: significant resistance
[4]
  resistance of CD133 positive cells compared to autologous CD133 negative cells: significant resistance
